Laboratory results taken from patent US20120264735A1 (priority 2009, published 2012).

target: T1, c-Met kinase (recombinant c-Met) (Homo sapiens, UniProt P08581); experiment: In vitro kinase assay I (homogeneous time-resolved fluorescence tyrosine kinase assay); assay type: biochemical
T1 construct: 0.27 nM recombinant c-Met
Experimental: The kinase activities of c-Met are measured using a modified version of the homogeneous-time-resolved tyrosine kinase assay described by Park et al. (1999, Anal. Biochem. 269:94-104).
The procedure for determining the potency of a compound to inhibit c-Met kinase comprises the following steps: • 1. Prepare 3-fold serial diluted compound solutions in 100% dimethyl sulfoxide (DMSO) at 20× of the desired final concentrations in a 384-well plate. • 2. Prepare a master reaction mix containing 6.67 mM MgCl2, 133.3 mM NaCl, 66.7 mM Tris-HCl (pH 7.4), 0.13 mg/ml BSA, 2.67 mM dithiothreitol, 0.27 nM recombinant c-Met and 666.7 nM biotinylated synthetic peptide substrate (biotin-ahx-EQEDEPEGDYFEWLE-CONH2) (SEQ.ID.NO.:1). • 3. In a black assay plate, add 1.5 μl of compound solution (or DMSO) and 22.5 μl of master reaction mix per well. Initiate the kinase reaction by adding 6 μl of 0.25 mM MgATP per well. Allow the reactions to proceed for 60 min at room temperature. The final conditions for the reaction are 0.2 nM c-Met, 0.5 μM substrate, 50 μM MgATP, 5 mM MgCl2, 100 mM NaCl, 2 mM DTT, 0.1 mg/ml BSA, 50 mM Tris (pH 7.4) and 5% DMSO. • 4. Stop the kinase reaction with 30 μl of Stop/Detection buffer containing 10 mM EDTA, 25 mM HEPES, 0.1% TRITON X-100, 0.750 nM Eu-chelate labeled anti-phosphotyrosine antibody PY20 (cat. #AD0067, PerkinElmer) and 50 μg/ml Streptavidin-allophycocyanin conjugate (cat. #PJ25S, Prozyme). • 5. Read HTRF signals on a Victor reader (PerkinElmer) in HTRF mode after 60-min incubation at room temperature in the dark. • 6. IC50 is determined by fitting the observed relationship between compound concentration and HTRF signal with a 4-parameter logistic equation. II. GTL-16 pY1349 Cell-Based Assay

T1 sequence (P08581 25-1390): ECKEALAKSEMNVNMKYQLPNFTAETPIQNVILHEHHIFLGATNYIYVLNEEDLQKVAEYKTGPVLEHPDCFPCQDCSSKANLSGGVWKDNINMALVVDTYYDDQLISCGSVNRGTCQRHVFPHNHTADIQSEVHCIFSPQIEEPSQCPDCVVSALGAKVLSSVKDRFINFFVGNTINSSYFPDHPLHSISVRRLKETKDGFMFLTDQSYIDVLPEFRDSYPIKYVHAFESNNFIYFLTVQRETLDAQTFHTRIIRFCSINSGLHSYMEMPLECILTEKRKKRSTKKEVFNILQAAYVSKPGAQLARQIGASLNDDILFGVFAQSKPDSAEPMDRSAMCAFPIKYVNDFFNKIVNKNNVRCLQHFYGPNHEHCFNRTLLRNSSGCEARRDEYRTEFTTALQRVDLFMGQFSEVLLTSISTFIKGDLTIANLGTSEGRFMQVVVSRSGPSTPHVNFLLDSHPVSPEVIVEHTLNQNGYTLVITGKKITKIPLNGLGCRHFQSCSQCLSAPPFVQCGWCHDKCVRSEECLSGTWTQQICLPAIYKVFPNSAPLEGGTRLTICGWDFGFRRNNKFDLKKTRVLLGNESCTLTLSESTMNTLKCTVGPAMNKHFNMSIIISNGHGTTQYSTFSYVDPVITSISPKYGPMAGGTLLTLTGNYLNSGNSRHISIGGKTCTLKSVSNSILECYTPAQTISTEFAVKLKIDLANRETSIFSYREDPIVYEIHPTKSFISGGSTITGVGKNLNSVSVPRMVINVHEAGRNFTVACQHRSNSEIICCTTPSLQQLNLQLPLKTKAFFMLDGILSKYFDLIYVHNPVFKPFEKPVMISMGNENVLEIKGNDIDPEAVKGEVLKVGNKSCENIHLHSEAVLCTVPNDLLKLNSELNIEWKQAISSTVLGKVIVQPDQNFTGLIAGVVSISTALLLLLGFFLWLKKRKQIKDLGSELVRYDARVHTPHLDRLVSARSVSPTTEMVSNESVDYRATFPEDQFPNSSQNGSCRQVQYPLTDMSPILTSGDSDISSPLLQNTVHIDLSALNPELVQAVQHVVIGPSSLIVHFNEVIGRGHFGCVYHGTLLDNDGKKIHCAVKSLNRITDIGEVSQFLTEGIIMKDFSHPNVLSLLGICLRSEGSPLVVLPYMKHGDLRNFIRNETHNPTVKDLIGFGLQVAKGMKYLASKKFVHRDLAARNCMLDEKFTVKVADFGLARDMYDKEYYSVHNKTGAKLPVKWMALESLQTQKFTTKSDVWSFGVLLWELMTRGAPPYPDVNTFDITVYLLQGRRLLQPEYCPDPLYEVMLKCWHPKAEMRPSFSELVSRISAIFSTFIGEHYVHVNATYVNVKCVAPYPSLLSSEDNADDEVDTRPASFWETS

IC50, < 100 nM:
O=c1ccn(-c2ccc(F)c(F)c2)nc1Cc1cccc(-c2ncc(OCC3CCOC3)cn2)c1 (racemic) [Example 328, rac-1-(3,4-difluorophenyl)-3-{3-[5-(tetrahydrofuran-3-ylmethoxy)pyrimidin-2-yl]benzyl}pyridazin-4(1H)-one]
CC(c1cccc(-c2ncc(OC3CCNCC3)cn2)c1)c1nn(-c2cnn(C)c2)ccc1=O (racemic) [Example 334, rac-1-(1-Methyl-1H-pyrazol-4-yl)-3-(1-{3-[5-(piperidin-4-yloxy)pyrimidin-2-yl]phenyl}ethyl)pyridazin-4(1H)-one]
Cn1cc(-n2ccc(=O)c(Cc3cccc(-c4ncc(OCC(O)C(F)(F)F)cn4)c3)n2)cn1 (racemic) [Example 364, rac-1-(1-methyl-1H-pyrazol-4-yl)-3-{3-[5-(3,3,3-trifluoro-2-hydroxypropoxy)pyrimidin-2-yl]benzyl}pyridazin-4(1H)-one]
CC(Oc1cnc(-c2cccc(Cc3nn(-c4cnn(C)c4)ccc3=O)c2)nc1)C(C)(C)O (racemic) [Example 366, rac-3-{3-[5-(2-hydroxy-1,2-dimethylpropoxy)pyrimidin-2-yl]benzyl}-1-(1-methyl-1H-pyrazol-4-yl)pyridazin-4(1H)-one]
Cn1cc(-n2ccc(=O)c(Cc3cccc(-c4ncc(OCC(O)c5ccncc5)cn4)c3)n2)cn1 (racemic) [Example 367, rac-3-(3-{5-[2-hydroxy-2-(pyridin-4-yl)ethoxy]pyrimidin-2-yl}benzyl)-1-(1-methyl-1H-pyrazol-4-yl)pyridazin-4(1H)-one]
Cn1cc(-n2ccc(=O)c(Cc3cccc(-c4ncc(OCC(O)CN5CCOCC5)cn4)c3)n2)cn1 (racemic) [Example 368, rac-3-{3-[5-(2-hydroxy-3-morpholin-4-ylpropoxy)pyrimidin-2-yl]benzyl}-1-(1-methyl-1H-pyrazol-4-yl)pyridazin-4(1H)-one]
Cn1cc(-n2ccc(=O)c(Cc3cccc(-c4ncc(OCC(O)CF)cn4)c3)n2)cn1 (racemic) [Example 369, rac-3-{3-[5-(3-fluoro-2-hydroxypropoxy)pyrimidin-2-yl]benzyl}-1-(1-methyl-1H-pyrazol-4-yl)pyridazin-4(1H)-one]
CCOCC(O)COc1cnc(-c2cccc(Cc3nn(-c4cnn(C)c4)ccc3=O)c2)nc1 (racemic) [Example 370, rac-3-{3-[5-(3-ethoxy-2-hydroxypropoxy)pyrimidin-2-yl]benzyl}-1-(1-methyl-1H-pyrazol-4-yl)pyridazin-4(1H)-one]
Cn1cc(-n2ccc(=O)c(Cc3cccc(-c4ncc(OCC(F)c5ccncc5)cn4)c3)n2)cn1 (racemic) [Example 389, rac-3-(3-{5-[2-fluoro-2-(pyridin-4-yl)ethoxy]pyrimidin-2-yl}benzyl)-1-(1-methyl-1H-pyrazol-4-yl)pyridazin-4(1H)-one]
Cn1cc(-n2ccc(=O)c(Cc3cccc(-c4ncc(O[C@@H]5COC[C@@H]5F)cn4)c3)n2)cn1 (racemic) [Example 390, rac-3-(3-{5-[(cis-4-fluorotetra-hydrofuran-3-yl}oxy]pyrimidin-2-yl}benzyl)-1-(1-methyl-1H-pyrazol-4-yl)pyridazin-4(1H)-one]
CCC(C)c1cnc(-c2cccc(Cc3nn(-c4cnn(C)c4)ccc3=O)c2)nc1 (racemic) [Example 408, rac-3-{3-[5-(Butan-2-yl)pyrimidin-2-yl]benzyl}-1-(1-methyl-1H-pyrazol-4-yl)pyridazin-4(1-1)-one]
Cn1cc(-n2ccc(=O)c(Cc3cccc(-c4ncc(CN5CCC(F)C5)cn4)c3)n2)cn1 (racemic) [Example 431, rac-3-(3-{5-[(3-fluoropyrrolidin-1-yl)methyl]pyrimidin-2-yl}benzyl)-1-(1-methyl-1H-pyrazol-4-yl)pyridazin-4(1H)-one]
Cn1cc(-n2ccc(=O)c(Cc3cccc(-c4ncc(N5CCC(O)C5)cn4)c3)n2)cn1 (racemic) [Example 440, rac-3-{3-[5-(3-Hydroxypyrrolidin-1-yl)pyrimidin-2-yl]benzyl}-1-(1-methy 1H-pyrazol-4-yl)pyridazin-4(1H)-one]
Cn1cc(-n2ccc(=O)c(Cc3cccc(-c4ncc(N5CCCC(C#N)C5)cn4)c3)n2)cn1 (racemic) [Example 446, rac-1-[2-(3-{[1-(1-methyl-1H-pyrazol-4-yl)-4-oxo-1,4-dihydropyridazin-3-yl]methyl}phenyl)pyrimidin-5-yl]piperidine-3-carbonitrile]
COCC1CCCN(c2cnc(-c3cccc(Cc4nn(-c5cnn(C)c5)ccc4=O)c3)nc2)C1 (racemic) [Example 449, rac-3-(3-{5-[3-(methoxymethyl)piperidin-1-yl]pyrimidin-2-yl}benzyl)-1-(1-methyl-1H-pyrazol-4-yl)pyridazin-4(1H)-one]
CC1COCCN1c1cnc(-c2cccc(Cc3nn(-c4cnn(C)c4)ccc3=O)c2)nc1 (racemic) [Example 450, rac-3-{3-[5-(3-methylmorpholin-4-yl)pyrimidin-2-yl]benzyl}-1-(1-methyl-1H-pyrazol-4-yl)pyridazin-4(1H)-one]
Cn1cc(-n2ccc(=O)c(Cc3cccc(-c4ncc(NCC5CCOC5)cn4)c3)n2)cn1 (racemic) [Example 455, rac-1-(1-methyl-1H-pyrazol-4-yl)-3-(3-{5-[(tetrahydro-furan-3-ylmethyl)amino]pyrimidin-2-yl}benzyl)pyridazin-4(1H)-one]
Cn1cc(-n2ccc(=O)c(Cc3cccc(-c4ncc(NC(=O)C5CCCO5)cn4)c3)n2)cn1 (racemic) [Example 462, rac-N-[2-(3-{[1-(1-methyl-1H-pyrazol-4-yl)-4-oxo-1,4-dihydro-pyridazin-3-yl}methyl}phenyl)pyrimidin-5-yl]tetra-hydrofuran-2-carboxamide]
Cn1cc(-n2ccc(=O)c(Cc3cccc(-c4ncc(N5CCCC(F)C5)cn4)c3)n2)cn1 (racemic) [Example 468, rac-3-{3-[5-(3-fluoro-piperidin-1-yl)pyrimidin-2-yl]benzyl)-1-(1-methyl-1H-pyrazol-4-yl)pyridazin-4(1H)-one]
CC1CCCN(c2cnc(-c3cccc(Cc4nn(-c5cnn(C)c5)ccc4=O)c3)nc2)C1 (racemic) [Example 469, rac-3-{3-[5-(3-methyl-piperidin-1-yl)pyrimidin-2-yl]benzyl}-1-(1-methyl-1H-pyrazol-4-yl)pyridazin-4(1H)-one]
Cn1cc(-n2ccc(=O)c(Cc3cccc(-c4ncc(C(=O)NCC5COCCO5)cn4)c3)n2)cn1 (racemic) [Example 474, rac-N-(1,4-Dioxan-2-ylmethyl)-2-(3-{[1-(1-methyl-1H-pyrazol-4-yl)-4-oxo-1,4-dihydropyridazin-3-yl]methyl}phenyl)pyrimidine-5-carboxamide]
Cn1cc(-n2ccc(=O)c(Cc3cccc(-c4ncc(C(=O)NCC5CCOC5)cn4)c3)n2)cn1 (racemic) [Example 475, rac-2-(3-{[1-(1-methyl-1H-pyrazol-4-yl) 4-oxo-1,4-dihydro-pyridazin-3-yl]methyl}phenyl)-N-(tetrahydro-furan-3-ylmethyl)pyrimidine-5-carboxamide]
Cn1cc(-n2ccc(=O)c(Cc3cccc(-c4ncc(C(=O)NCC5COCCO5)cn4)c3)n2)cn1 (racemic) [Example 476, rac-N-(1,4-dioxan-2-ylmethyl)-2-(3-{[1-(1-methyl-1H-pyrazol-4-yl)-4-oxo-1,4-dihydro-pyridazin-3-yl]methyl}phenyl)pyrimidine-5-carboxamide]
Cn1cc(-n2ccc(=O)c(Cc3cccc(-c4ncc(C(=O)NCC5CCCOC5)cn4)c3)n2)cn1 (racemic) [Example 478, rac-2-(3-{[1-(1-methyl-1H-pyrazol-4-yl)-4-oxo-1,4-dihydro-pyridazin-3-yl]methyl}phenyl)-N-tetrahydro-2H-pyran-3-ylmethyl)pyrimidine-5-carboxamide]
Cn1cc(-n2ccc(=O)c(Cc3cccc(-c4ncc(C(=O)NCC5CCCO5)cn4)c3)n2)cn1 (racemic) [Example 483, rac-2-(3-{[1-(1-methyl-1H-pyrazol-4-yl)-4-oxo-1,4-dihydro-pyridazin-3-yl]methyl}phenyl)-N-(tetrahydro-furan-2-ylmethyl)pyrimidine-5-carboxamide]

IC50, 100 to 1000 nM:
Cn1cc(-n2ccc(=O)c(Cc3cccc(-c4ncc(NC(=O)CC5CCCO5)cn4)c3)n2)cn1 (racemic) [Example 464, rac-N-[2-(3-{[1-(1-methyl-1H-pyrazol-4-yl)-4-oxo-1,4-dihydro-pyridazin-3-yl]methyl}phenyl)pyrimidin-5-yl]-2-(tetrahydro-furan-2-yl)acetamide]
